“Also recorded” adds a separate entry of the source.

Experiment [1] has as its system testicular steroidogensis. Kind of experiment: Inhibitory activity against testicular steroidogenesis in men in good health, single intranasal administration. The format is in vivo. The procedure:
The said product was administered intranasally at a dose of 500 μg in a few drops of distilled water at 8 A.M. on the third day of the test. For 2 days prior to the treatment and for 6 days after the treatment, samples of blood were taken daily at 8 A.M., 3 P.M. and 10 P.M. On the day of administration of the LH--RH agonist, blood samples were taken at 11 A.M. and 6 P.M.
The seric concentrations of LH and FSH were measured by radioimmuno-logic dosages with double antibodies and the antibodies for measuring LH and FSH were furnished by the National Pituitary Agency of N.I.H. in Bethesda, Md. The seric concentrations of steroids was measured by radioimmuno-logic dosages in which one ml of serum was extracted with ether and the steroids were separated on a LH-20 column before measuring with radioimmuno-logic dosages. The radioimmuno-logic dosage results were determined by a program derived from model II of Rodbard et al [Second Karolinska Symposium on Research Methods in Reproductive Endrocrinology, Diczfalusky Editor, Copenhague (1970), p. 79-103]. The statistical significance was determined by the "multiple level test" of Duncan-Kramer [Kramer, Biometrics, Vol. 12 (1956), p. 307]. The results are shown in the graphs on sheet 1 of the Figures filed herewith.

Experiment [2] concerns testicular steriodogenosis. Kind of experiment: Inhibitory activity on testicular steroidogenesis in a patient with prostate cancer. It counts as in vivo, human. The conditions noted are these: intranasal 500 μg twice a day. An excerpt: The inhibitory activity of [D Ser (Tbu)^6, des Gly NH2^10 ] […] The results are reported in the graphs of sheet 2 of the Figures.
The test system of another experiment is ovarian steroidogenosis. The experiment can be described thus: Inhibitory activity on ovarian steroidogenesis in women. It counts as in vivo. As to the method: The inhibitory activity of [D Ser (Tbu)^6, des Gly NH2^10 ] LH--RH ethylamide on ovarian steroidogenosis in women was determined on 6 women aged 26 to 35 years with normal and regular menstrual cycles and without prior endocrinal or gynecological problems. The study was conducted for 6 consecutive cycles consisting of 2 pretreatment cycles, 2 treatment cycles and 2 post-treatment cycles. Two drops of a solution containing 500 μg of [D Ser (Tbu)^6, des Gly NH2^10 ] LH--RH ethylamide were deposited on each nostril at 8 A.M. and 5 P.M. of a day between the 4th and 9th day after the peak of LH-day 0. Daily blood samples were taken between 4 and 6 P.M. to measure seric levels of LH, FSH, progesterone and estradiol which were determined by radioimmuno-logictests with double antibodies. The antibodies to measure LH and FSH were furnished by the National Pituitory Agency of N.I.H. of Bethesda, Md.
Estradiol and progesterone were measured with highly specific antibodies developed against 7-(O-carboxymethyl)-oxime of estradiol and 12-(O-carboxymethyl)-oxime of progesterone, respectively [3H] 17β-estradiol and ^125 I-progesterone-12-[O-carboxymethyl)-oxime]used as tracers. The serum was extracted with benzene and the steroids were separated with a LH-20 column before the determination. The radioimmunological results were exploited by the program derived from model II of Rodbard and Lewald as in Example 1 and the statistical significance was measured by the multiple level test of Ducan-Kramer of Example 1. The results are shown in the graphs of sheets 3 to 5 of the Figures.

[3] abbreviates: men, intranasal 500 μg, 3rd day following administration.
Where [4] appears, read: intranasal 500 μg at 8 A.M. and 5 P.M. of one day in the luteal phase, typical subject of sheet 3.

For the compound `CCNC(=O)[C@@H]1CCCN1C(=O)[C@H](CCCNC(=N)N)NC(=O)[C@H](CC(C)C)NC(=O)[C@@H](COC(C)(C)C)NC(=O)[C@H](Cc1ccc(O)cc1)NC(=O)[C@H](CO)NC(=O)[C@H](Cc1c[nH]c2ccccc12)NC(=O)[C@H](Cc1c[nH]cn1)NC(=O)[C@@H]1CCC(=O)N1` [[D Ser (Tbu)^6, des Gly NH2^10] LH--RH ethylamide], in experiment [1] (human, single intranasal dose of 500 μg), the “duration of the drop of seric levels of the steroids (testosterone and its precursors)” value came to 3 days. Moreover, in experiment [1] (human, single intranasal dose of 500 μg, 3rd day following administration), the “diminution of the level of testosterone” value was 50%. In addition, in experiment [1] (human, single intranasal dose of 500 μg, fourth day (until the 6th day)), the “level of testosterone / steroids on the fourth day after administration” value is “returned to normal; also recorded: return to normal levels”. Moreover, in experiment [1] (setting [3]), the “concentration of 17-OH-progesterone relative to the initial control values” turned out to be 40% and the “concentration of testosterone relative to the initial control values” is reported as 50%. The “LH and FSH plasmatic levels” value in experiment [1] (men, intranasal 500 μg, after administration) is on record as “increase”. In addition, in experiment [1] (men, intranasal 500 μg, on the day of treatment), the “seric concentration of pregnenolone, 17-OH-pregnenolone, progesterone, 17-OH-progesterone, Δ5-androstene-3β,17β-diol and testosterone” value is “increased”. Moreover, the “level of androgenic steroids” value in experiment [2] was “diminution”. For the same compound, in experiment [2] (two weeks of treatment), the level of testosterone result was “stabilized at a very low level”. Besides, the “progesterone level, cycles of post-treatment, % of the control values (pretreatment cycles = 100%)” value with ovarian steroidogenosis (12 cycles of post-treatment) came out at 99%. For the same compound, in the experiment on ovarian steroidogenosis (12 cycles of treatment), the “progesterone level, cycles of treatment, % of the control values (pretreatment cycles = 100%)” value stood at 46%. Moreover, the “level of progesterone reduced as compared to the controls” value with ovarian steroidogenosis (12 cycles, sheet 5, scale 13 to 127%) was found to be 46%. Besides, in the experiment on ovarian steroidogenosis (setting [4]), the “reduction of seric levels of progesterone as compared to the controls, first cycle of treatment” value turned out to be 13% and the “reduction of seric levels of progesterone as compared to the controls, second cycle of treatment” value stood at 34%. Also, the “level of seric progesterone in the 2 cycles of post-treatment” value with ovarian steroidogenosis (post-treatment cycles) is given as “return to normal”.

The values above are taken from patent US4472382A, “Treatment method” (Roussel Uclaf, priority 1979, dated 1984).
